Test results as given in paper PMC12375981 (Protein Science : A Publication of the Protein Society, 2025).

Key:
S1D 3CL^pro [1] = biological target: T1, S1D 3CL^pro (Severe acute respiratory syndrome coronavirus 2, UniProt P0DTD1, S3264D); assay type: binding, SARS‐CoV‐2
A191E 3CL^pro = A191E 3CL^pro (Severe acute respiratory syndrome coronavirus 2, UniProt P0DTD1, A3454E); assay type: biochemical, SARS‐CoV‐2
DM (S1D + A191E) 3CL^pro = DM (S1D + A191E) 3CL^pro (Severe acute respiratory syndrome coronavirus 2, UniProt P0DTD1, A3454E/S3264D); assay type: binding, SARS‐CoV‐2
[2] = biological target: S1D + A191E 3CL^pro (double mutant, DM) (Severe acute respiratory syndrome coronavirus 2, UniProt P0DTD1, A3454E/S3264D); assay type: biochemical, SARS‐CoV‐2
S1D 3CL^pro [3] = biological target: T1, S1D 3CL^pro; assay type: biochemical, SARS‐CoV‐2
E166V 3CL^pro = settings: cited from earlier work
[4] = test system: E166V mutation of 3CL^pro; settings: cited from earlier work

Structure (SMILES) | effect of inhibitor on monomer/dimer peaks (S1D 3CL^pro [1]) | reduction in affinity (K i) compared to the WT (A191E 3CL^pro) | effect of inhibitor on monomer/dimer peaks (DM (S1D + A191E) 3CL^pro) | K D [2] | K D f c [2] | K D/f c [2] | f c [2] | inhibitor concentration at which the mutant is more active than the WT [2] | reduction in affinity for the dimer (K i) compared to the WT [2] | K D (S1D 3CL^pro [3]) | K D f c (S1D 3CL^pro [3]) | K D/f c (S1D 3CL^pro [3]) | f c (S1D 3CL^pro [3]) | inhibitor concentration at which the mutant is more active than the WT (S1D 3CL^pro [3]) | inhibitor concentration for full inhibition (S1D 3CL^pro [3]) | reduction in affinity (K i) compared to the WT (S1D 3CL^pro [3]) | increase in K i (E166V 3CL^pro) | increase in EC50 [4]
COc1cccc2[nH]c(C(=O)N[C@@H](CC(C)C)C(=O)N[C@@H](C[C@@H]3CCNC3=O)C(=O)COP(=O)(O)O)cc12 [lufotrelvir] | eliminated the monomeric peaks | 6.4 fold | eliminated the monomeric peaks | 140 ± 10 nM | 2300 ± 300 nM | 9 ± 1 nM | 16 ± 1 | ≥ 10 nM | 26 fold | 290 ± 30 nM | 6000 ± 700 nM | 13 ± 2 nM | 21 ± 1 | greater than 10 nM | exceeded 1 μM | 3.3 fold |  | 
CC(C)(C)[C@H](NC(=O)C(F)(F)F)C(=O)N1C[C@H]2[C@@H]([C@H]1C(=O)N[C@H](C#N)C[C@@H]1CCNC1=O)C2(C)C [nirmatrelvir] |  |  |  |  |  |  |  |  |  |  |  |  |  |  |  |  | more than 7000 fold | up to 255 fold
